Data reported in patent publication US20160002204A1 (Board of Regents, The University of Texas System, priority 2014, published 2016).

What was measured:
[1] = test system: A549 cells; assay: A549 proliferation (viability) assay, Cell Titer Fluor, 72 hours; format: cell-based; conditions: Homo sapiens
Summary of the method: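 1000 A549 cells/well, RPMI 1640/10% dialyzed FBS, 24 h attach; compound 72 h, 0.5% DMSO, 37 °C/5% CO2; Cell Titer Fluor fluorescence; EC50 via 4-parameter logistic.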

[2] = target: T1, GLS1 (purified recombinant human GAC) (Homo sapiens, UniProt O94925); assay: GLS1 enzymatic activity assay (dual-coupled, Amplex UltraRed/resorufin); format: biochemical
T1 sequence (O94925 55-598 isoform O94925-3 limits assumed): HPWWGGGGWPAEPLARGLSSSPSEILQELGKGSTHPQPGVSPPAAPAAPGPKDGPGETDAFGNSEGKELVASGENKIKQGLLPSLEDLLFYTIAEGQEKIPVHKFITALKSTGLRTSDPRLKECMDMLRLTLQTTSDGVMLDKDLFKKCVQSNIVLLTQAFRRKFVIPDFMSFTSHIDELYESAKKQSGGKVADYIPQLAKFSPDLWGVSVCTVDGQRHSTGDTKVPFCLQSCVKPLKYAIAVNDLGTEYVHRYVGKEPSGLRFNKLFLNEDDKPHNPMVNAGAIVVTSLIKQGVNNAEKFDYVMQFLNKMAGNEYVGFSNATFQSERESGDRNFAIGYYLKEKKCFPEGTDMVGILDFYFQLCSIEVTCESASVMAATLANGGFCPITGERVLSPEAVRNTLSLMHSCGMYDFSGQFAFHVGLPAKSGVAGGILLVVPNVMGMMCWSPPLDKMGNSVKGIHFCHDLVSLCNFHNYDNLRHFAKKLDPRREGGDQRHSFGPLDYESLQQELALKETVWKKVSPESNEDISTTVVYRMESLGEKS
Summary of the method: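 In this coupled fluorometric format, phosphate-activated GAC (2 nM, 50 mM phosphate) is pre-exposed to compound for 10 min before 1 mM glutamine addition. Product is tracked as resorufin (530/590 nm) over time or at 20 min, and potency is derived by logistic fitting.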

EC50 [1]	IC50 [2]	Structure (SMILES)
< 100 nM	< 100 nM	CC(C)(C)CC(=O)Nc1ccn(CCC(F)Cn2cc(C(=O)NCc3cccc(OC(F)(F)F)c3)nn2)c(=O)c1F (centres unmarked) [Example 340, 1-{4-[4-(3,3-dimethylbutanamido)-3-fluoro-2-oxo-1,2-dihydropyridin-1-yl]-2-fluorobutyl}-N-{[3-(trifluoromethoxy)phenyl]methyl}-1H-1,2,3-triazole-4-carboxamide]
< 100 nM	< 100 nM	O=C(NCc1cccc(OC(F)(F)F)c1)c1cn(CC(F)CCn2ccc(NC(=O)C3CCCCC3)c(F)c2=O)nn1 (centres unmarked) [Example 341, 1-[4-(4-cyclohexaneamido-3-fluoro-2-oxo-1,2-dihydropyridin-1-yl)-2-fluorobutyl]-N-{[3-(trifluoromethoxy)phenyl]methyl}-1H-1,2,3-triazole-4-carboxamide]
< 100 nM	< 100 nM	O=C(NCc1cccc(OC(F)(F)F)c1)c1cn(CC(F)CCn2ccc(NC(=O)C3CCCC3)c(F)c2=O)nn1 (centres unmarked) [Example 342, 1-[4-(4-cyclopentaneamido-3-fluoro-2-oxo-1,2-dihydropyridin-1-yl)-2-fluorobutyl]-N-{[3-(trifluoromethoxy)phenyl]methyl}-1H-1,2,3-triazole-4-carboxamide]
< 100 nM	< 100 nM	O=C(Nc1ccn(CCC(F)Cn2cc(C(=O)NCc3cccc(OC(F)(F)F)c3)nn2)c(=O)c1F)OC1CCCCC1 (centres unmarked) [Example 346, cyclohexyl N-(3-fluoro-1-{3-fluoro-4-[4-({[3-(trifluoro-methoxy)phenyl]methyl}carbamoyl)-1H-1,2,3-triazol-1-yl]butyl}-2-oxo-1,2-dihydropyridin-4-yl)carbamate]
< 100 nM	< 100 nM	CC(C)OC(=O)Nc1ccn(CCC(F)Cn2cc(C(=O)NCc3cccc(OC(F)(F)F)c3)nn2)c(=O)c1F (centres unmarked) [Example 354]
< 100 nM	< 100 nM	O=C(CC1CCCC1)Nc1ccn(CCC(F)Cn2cc(C(=O)NCc3cccc(OC(F)(F)F)c3)nn2)c(=O)c1F (centres unmarked) [Example 355, 1-{4-[4-(2-cyclopentylacetamido)-3-fluoro-2-oxo-1,2-dihydropyridin-1-yl]-2-fluorobutyl}-N-{[3-(trifluoromethoxy)phenyl]methyl}-1H-1,2,3-triazole-4-carboxamide]
100 to 500 nM	< 100 nM	O=C(CC1CCC1)Nc1ccn(CCC(F)Cn2cc(C(=O)NCc3ccc(C(F)(F)F)nc3)nn2)c(=O)c1F (centres unmarked) [Example 357, 1-{4-[4-(2-cyclobutylacetamido)-3-fluoro-2-oxo-1,2-dihydropyridin-1-yl]-2-fluorobutyl}-N-{[6-(trifluoromethyl)pyridin-3-yl]methyl}-1H-1,2,3-triazole-4-carboxamide]
< 100 nM	< 100 nM	O=C(Nc1ccn(CCC(F)Cn2cc(C(=O)NCc3cccc(OC(F)(F)F)c3)nn2)c(=O)c1F)C(=O)N1CCCCC1 (centres unmarked) [Example 358, 1-(2-fluoro-4-(3-fluoro-2-oxo-4-(2-oxo-2-(piperidin-1-yl)acetamido)pyridin-1(2H)-yl)butyl)-N-(3-(trifluoromethoxy)benzyl)-1H-1,2,3-triazole-4-carboxamide]
500 to 5000 nM	100 to 500 nM	O=C(O)C(=O)Nc1ccn(CCC(F)Cn2cc(C(=O)NCc3cccc(OC(F)(F)F)c3)nn2)c(=O)c1F (centres unmarked) [Example 359, [(3-fluoro-1-{3-fluoro-4-[4-({[3-(trifluoromethoxy)phenyl]methyl}carbamoyl)-1H-1,2,3-triazol-1-yl]butyl}-2-oxo-1,2-dihydropyridin-4-yl)carbamoyl]formic acid]
< 100 nM	< 100 nM	O=C(CC1CCCC1)Nc1ccn(CCC(F)Cn2cc(C(=O)NCc3cncc(C(F)(F)F)c3)nn2)c(=O)c1F (centres unmarked) [Example 360, 1-{4-[4-(2-cyclopentylacetamido)-3-fluoro-2-oxo-1,2-dihydropyridin-1-yl]-2-fluorobutyl}-N-{[5-(trifluoromethyl)pyridin-3-yl]methyl}-1H-1,2,3-triazole-4-carboxamide]

The remaining lines, values behind:

Structure (SMILES)	EC50 [1]	IC50 [2]
C[C@H](C(=O)Nc1ccn(CCC(F)Cn2cc(C(=O)NCc3cc(C(F)(F)F)ccn3)nn2)c(=O)c1F)c1ccccc1 (stereo partly drawn) [Example 343, 1-(2-fluoro-4-{3-fluoro-2-oxo-4-[(2S) 2-phenylpropanamido]-1,2-dihydropyridin-1-yl}butyl)-N-{[4-(trifluoromethyl)pyridin-2-yl]methyl}-1H-1,2,3-triazole-4-carboxamide]	< 100 nM	< 100 nM
O=C(CN1CCCCC1)Nc1ccn(CCC(F)Cn2cc(C(=O)NCc3cc(C(F)(F)F)ccn3)nn2)c(=O)c1F (centres unmarked) [Example 344, 1-(2-fluoro-4-{3-fluoro-2-oxo-4-[2-(piperidin-1-yl)acetamido]-1,2-dihydropyridin-1-yl}butyl)-N-{[4-(trifluoromethyl)pyridin-2-yl]methyl}-1H-1,2,3-triazole-4-carboxamide]	< 100 nM	100 to 500 nM
CC(C(=O)Nc1ccn(CCC(F)Cn2cc(C(=O)NCc3cc(C(F)(F)F)ccn3)nn2)c(=O)c1F)N1CCCCC1 (centres unmarked) [Example 345, 1-(2-fluoro-4-{3-fluoro-2-oxo-4-[2-(piperidin-1-yl)propanamido]-1,2-dihydropyridin-1-yl}butyl)-N-{[4-(trifluoromethyl)pyridin-2-yl]methyl}-1H-1,2,3-triazole-4-carboxamide]	< 100 nM	100 to 500 nM
CCOC(=O)C(=O)Nc1ccn(CCC(F)Cn2cc(C(=O)NCc3cccc(OC(F)(F)F)c3)nn2)c(=O)c1F (centres unmarked) [Example 347, ethyl [(3-fluoro-1-{3-fluoro-4-[4-({[3-(trifluoromethoxy)phenyl]methyl}carbamoyl)-1H-1,2,3-triazol-1-yl]butyl}-2-oxo-1,2-dihydropyridin-4-yl)carbamoyl]formate]	> 5000 nM	100 to 500 nM
O=C(Cc1ccccc1)Nc1ccn(CCC(F)Cn2cc(C(=O)NCc3cncc(C(F)(F)F)c3)nn2)c(=O)c1F (centres unmarked) [Example 348, 1-{2-fluoro-4-[3-fluoro-2-oxo-4-(2-phenylacetamido)-1,2-dihydropyridin-1-yl]butyl}-N-{[5-(trifluoromethyl)pyridin-3-yl]methyl}-1H-1,2,3-triazole-4-carboxamide]	< 100 nM	< 100 nM
C[C@H](C(=O)Nc1ccn(CCC(F)Cn2cc(C(=O)NCc3cncc(C(F)(F)F)c3)nn2)c(=O)c1F)c1ccccc1 (some centres unmarked) [Example 349]	< 100 nM	< 100 nM
O=C(CC1CCC1)Nc1ccn(CCC(F)Cn2cc(C(=O)NCc3cncc(C(F)(F)F)c3)nn2)c(=O)c1F (centres unmarked) [Example 350, 1-{4-[4-(2-cyclobutylacetamido)-3-fluoro-2-oxo-1,2-dihydropyridin-1-yl]-2-fluorobutyl}-N-{[5-(trifluoromethyl)pyridin-3-yl]methyl}-1H-1,2,3-triazole-4-carboxamide]	< 100 nM	< 100 nM
O=C(CN1CCCCC1)Nc1ccn(CCC(F)Cn2cc(C(=O)NCc3cncc(C(F)(F)F)c3)nn2)c(=O)c1F (centres unmarked) [Example 351, 1-(2-fluoro-4-{3-fluoro-2-oxo-4-[2-(piperidin-1-yl)acetamido]-1,2-dihydropyridin-1-yl}butyl)-N-{[5-(trifluoromethyl)pyridin-3-yl]methyl}-1H-1,2,3-triazole-4-carboxamide]	< 100 nM	< 100 nM
CC(C(=O)Nc1ccn(CCC(F)Cn2cc(C(=O)NCc3cncc(C(F)(F)F)c3)nn2)c(=O)c1F)N1CCCCC1 (centres unmarked) [Example 352, 1-(2-fluoro-4-{3-fluoro-2-oxo-4-[2-(piperidin-1-yl)propanamido]-1,2-dihydropyridin-1-yl}butyl)-N-{[5-(trifluoromethyl)pyridin-3-yl]methyl}-1H-1,2,3-triazole-4-carboxamide]	< 100 nM	< 100 nM
O=C(Nc1ccn(CCC(F)Cn2cc(C(=O)NCc3cccc(OC(F)(F)F)c3)nn2)c(=O)c1F)c1ccccc1 (centres unmarked) [Example 353, 1-[4-(4-benzamido-3-fluoro-2-oxo-1,2-dihydropyridin-1-yl)-2-fluorobutyl]-N-{[3-(trifluoromethoxy)phenyl]methyl}-1H-1,2,3-triazole-4-carboxamide]	100 to 500 nM	< 100 nM
O=C(CC1CCC1)Nc1ccn(CCC(F)Cn2cc(C(=O)NCc3ncccc3F)nn2)c(=O)c1F (centres unmarked) [Example 356, 1-{4-[4-(2-cyclobutylacetamido)-3-fluoro-2-oxo-1,2-dihydropyridin-1-yl]-2-fluorobutyl}-N-[(3-fluoropyridin-2-yl)methyl]-1H-1,2,3-triazole-4-carboxamide]	100 to 500 nM	100 to 500 nM
O=C(Cc1ccccc1F)Nc1ccn(CCC(F)Cn2cc(C(=O)NCc3cncc(C(F)(F)F)c3)nn2)c(=O)c1F (centres unmarked) [Example 361, 1-(2-fluoro-4-{3-fluoro-4-[2-(2-fluorophenyl)acetamido]-2-oxo-1,2-dihydropyridin-1-yl}butyl)-N-{[5-(trifluoromethyl)pyridin-3-yl]methyl}-1H-1,2,3-triazole-4-carboxamide]	< 100 nM	< 100 nM
